Molecular target: T1, hERG K+ channel (Homo sapiens, UniProt Q12809)
T1 construct: expressed in transfected cells; host or cells: CHO (Chinese hamster ovary) cells, CHOhERG
Experiment: hERG channel inhibition assay (patch-clamp, CHOhERG cells)
Format: cell-based
Settings: whole-cell patch-clamp; for IC20: human, CHO cells stably expressing hERG
Method: hERG Channel Inhibition Assay
The hERG K^+ channels were cloned in humans and stably expressed in a CHO (Chinese hamster ovary) cell line. CHOhERG cells were used for patch-clamp (voltage-clamp, whole-cell) experiments. Cells were stimulated by a voltage pattern to activate hERG channels and conduct IKhERG Currents (rapid delayed outward rectifier potassium current of the hERG channel). After the cells were stabilized for a few minutes, the amplitude and kinetics of IKhERG were recorded at a stimulation frequency of 0.1 Hz (6 bpm). Thereafter, the test compound was added to the preparation at increasing concentrations. For each concentration, an attempt was made to reach a steady-state effect, usually, this was achieved within 3-10 min at which time the next highest concentration was applied. The amplitude and kinetics of IKhERG are recorded in each concentration of the drug which were compared to the control values (taken as 100%). (references: Redfern W S, Carlsson L, Davis A S, Lynch W G, MacKenzie I, Palethorpe S, Siegl P K, Strang I, Sullivan A T, Wallis R, Camm A J, Hammond T G. 2003; Relationships between preclinical cardiac electrophysiology, clinical QT interval prolongation and torsade de pointes for a broad range of drugs: evidence for a provisional safety margin in drug development. Cardiovasc. Res. 58:32-45, Sanguinetti M C, Tristani-Firouzi M. 2006; hERG potassium channels and cardiac arrhythmia. Nature 440:463-469, Webster R, Leishman D, Walker D. 2002; Towards a drug concentration effect relationship for QT prolongation and torsades de pointes. Curr. Opin. Drug Discov. Devel. 5:116-26).

T1 sequence (Q12809 whole entry): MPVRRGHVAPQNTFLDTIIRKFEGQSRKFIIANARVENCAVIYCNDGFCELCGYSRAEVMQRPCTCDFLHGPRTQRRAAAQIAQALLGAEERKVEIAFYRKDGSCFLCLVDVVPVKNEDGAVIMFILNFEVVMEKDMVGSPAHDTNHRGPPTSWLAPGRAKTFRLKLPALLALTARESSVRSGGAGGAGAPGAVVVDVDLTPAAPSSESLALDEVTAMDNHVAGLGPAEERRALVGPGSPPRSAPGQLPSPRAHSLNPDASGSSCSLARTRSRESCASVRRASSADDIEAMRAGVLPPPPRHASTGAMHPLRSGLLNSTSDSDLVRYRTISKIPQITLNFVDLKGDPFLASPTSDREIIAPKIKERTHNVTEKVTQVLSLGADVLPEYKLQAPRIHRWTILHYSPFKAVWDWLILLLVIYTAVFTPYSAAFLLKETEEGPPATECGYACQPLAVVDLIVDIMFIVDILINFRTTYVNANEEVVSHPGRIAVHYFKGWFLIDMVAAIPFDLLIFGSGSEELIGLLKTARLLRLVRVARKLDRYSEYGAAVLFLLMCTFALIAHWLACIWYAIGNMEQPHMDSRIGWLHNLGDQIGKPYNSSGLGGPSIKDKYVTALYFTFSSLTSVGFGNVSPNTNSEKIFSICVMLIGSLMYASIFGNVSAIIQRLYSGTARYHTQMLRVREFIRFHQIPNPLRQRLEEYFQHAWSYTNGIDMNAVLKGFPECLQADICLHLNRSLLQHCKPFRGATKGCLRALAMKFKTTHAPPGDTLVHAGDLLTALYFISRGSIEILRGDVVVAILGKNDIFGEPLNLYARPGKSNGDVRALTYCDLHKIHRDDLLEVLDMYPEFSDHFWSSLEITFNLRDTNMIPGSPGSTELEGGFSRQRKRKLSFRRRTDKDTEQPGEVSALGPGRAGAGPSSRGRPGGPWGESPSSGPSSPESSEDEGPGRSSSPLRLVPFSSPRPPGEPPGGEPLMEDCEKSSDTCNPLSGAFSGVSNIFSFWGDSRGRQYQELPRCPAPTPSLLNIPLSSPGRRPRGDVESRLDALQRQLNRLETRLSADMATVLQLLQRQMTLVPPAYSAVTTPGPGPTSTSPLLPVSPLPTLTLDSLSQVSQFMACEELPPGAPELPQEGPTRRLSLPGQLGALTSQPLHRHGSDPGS

Structure (SMILES) | IC20 [µM] | IC50 [µM]
C[C@@H]1CN(c2ccc(C#N)c3ncccc23)C[C@@H]2Cc3cc(N[C@@H]4CNC[C@@H]4F)ccc3CN21 [Example 6, 5-[(4R,11aS)-4-methyl-9-[[(3R,4S)-4-fluoropyrrolidin-3-yl]amino]-1,3,4,6,11,11a-hexahydropyrazino[1,2-b]isoquinolin-2-yl]quinoline-8-carbonitrile] | > 10 | > 20
C[C@@H]1CN(c2ccc(C#N)c3ncccc23)C[C@@H]2Cc3cc(N4C[C@@H]5CNCCN5C4=O)ccc3CN21 (single isomer, unassigned) [Example 17A] | > 10 | > 20
C[C@@H]1CN(c2ccc(C#N)c3ncccc23)C[C@@H]2Cc3cc(OC[C@@H]4CCN4)ccc3CN21 [Example 12, 5-[(4R,11aS)-9-[[(2S)-azetidin-2-yl]methoxy]-4-methyl-1,3,4,6,11,11a-hexahydropyrazino[1,2-b]isoquinolin-2-yl]quinoline-8-carbonitrile] | 8.2 | > 20

Reference: patent US20230002375A1, “HYDROPYRAZINO[1,2-B]ISOQUINOLINE COMPOUNDS FOR THE TREATMENT OF AUTOIMMUNE DISEASE” (Hoffmann-La Roche Inc., priority 2019, published 2023)
